Read-outs that look alike come from different tables or passages of the source. Each block holds one compound with its values, some of them ahead of it.
Legend:
[1] = tested on: HeLa, human cervical epithelioid carcinoma; assay: Cytotoxicity assay (MTT), HeLa; settings: read-out: Cytotoxicities (IC50), HeLa, 72 h, MTT
[2] = tested on: glutathione peroxidase (GPx); assay: Cellular glutathione peroxidase activity of treated HeLa cells; format: cell-based, human; settings: one-hour treatment
Experimental: (§1) Cells were seeded at 2×10^5/well in 6-well plates and incubated for 24 hours. The metal thiourea compounds (10^−9 to 10^−4 M) were serially diluted and added to the cells (final DMSO concentrations≦1%). After an one-hour incubation, cells were washed thrice with phosphate buffered saline and 100 μL ice-cold lysis buffer (50 mM phosphate buffer, pH 7.4, 1 mM EDTA, 0.1% Triton-X 100) were added to the cell layer. Cell lysis was carried on ice for 5 minutes and the cell lysates were collected and stored at −80° C. or assayed immediately.
Cell lysates (10 μg proteins) were added to a mixture containing 100 mM phosphate, pH 7.4, 2 mM GSH, 1 U glutathione reductase, and 0.2 mM NADPH. Reaction was initiated by adding tert-butyl hydroperoxide (300 μM) and the NADPH oxidation was measured as decreases in O.D.340 nm in 10 min. GPx activities (ΔO.D.340 nm/min) were determined by subtracting the spontaneous NADPH oxidation in the absence of tert-butyl hydroperoxide.

[3] = Cytotoxicity assay (MTT), HepG2; settings: human, HepG2 cells
[4] = Cytotoxicity assay (MTT), HeLa; settings: human, HeLa cells
[5] = Cytotoxicity assay (MTT), NCI-H460; settings: human, NCI-H460 cells
[6] = target: T1, thioredoxin reductase (TrxR) (Homo sapiens, UniProt Q16881); assay: Cellular thioredoxin reductase activity of treated HeLa cells; format: cell-based; settings: one-hour treatment
T1 sequence (Q16881 1-649): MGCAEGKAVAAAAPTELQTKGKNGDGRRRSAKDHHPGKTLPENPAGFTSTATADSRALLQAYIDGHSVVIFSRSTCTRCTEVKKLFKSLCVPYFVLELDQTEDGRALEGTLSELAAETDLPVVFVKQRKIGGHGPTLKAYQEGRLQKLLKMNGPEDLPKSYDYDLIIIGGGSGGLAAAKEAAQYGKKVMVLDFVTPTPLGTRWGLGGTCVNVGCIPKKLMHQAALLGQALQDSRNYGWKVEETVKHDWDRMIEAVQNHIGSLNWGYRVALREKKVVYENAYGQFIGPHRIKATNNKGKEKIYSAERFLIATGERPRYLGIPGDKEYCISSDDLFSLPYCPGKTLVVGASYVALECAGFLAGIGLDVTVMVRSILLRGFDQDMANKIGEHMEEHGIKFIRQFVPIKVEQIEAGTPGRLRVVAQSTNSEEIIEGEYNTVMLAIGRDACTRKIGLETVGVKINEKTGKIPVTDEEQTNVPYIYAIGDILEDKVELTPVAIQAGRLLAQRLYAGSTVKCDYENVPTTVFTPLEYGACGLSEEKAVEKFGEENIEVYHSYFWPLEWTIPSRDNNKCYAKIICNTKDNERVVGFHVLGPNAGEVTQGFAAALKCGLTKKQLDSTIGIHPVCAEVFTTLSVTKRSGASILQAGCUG
Experimental: as §1, with “immediately. Cell lysates (10 μg proteins) were added to a mixture (100 μL) containing 100 mM phosphate, pH 7.4, 1 mM EDTA and 0.2 mM NADPH.” for “immediately.”

[7] = tested on: panel of cancer cell lines; settings: Homo sapiens, read-out: half maximal inhibitory concentrations (IC50), panel of cancer cell lines
[8] = Cytotoxicity assay (MTT), SUNE1; settings: human, SUNE1 cells
[9] = target: T2, Glutathione reductase (GR) (Homo sapiens, UniProt P00390); assay: Cellular glutathione reductase activity of treated HeLa cells; format: cell-based; settings: one-hour treatment, up to 100 μM
T2 construct: endogenous in cells; host or cells: HeLa
T2 sequence (P00390 44-522): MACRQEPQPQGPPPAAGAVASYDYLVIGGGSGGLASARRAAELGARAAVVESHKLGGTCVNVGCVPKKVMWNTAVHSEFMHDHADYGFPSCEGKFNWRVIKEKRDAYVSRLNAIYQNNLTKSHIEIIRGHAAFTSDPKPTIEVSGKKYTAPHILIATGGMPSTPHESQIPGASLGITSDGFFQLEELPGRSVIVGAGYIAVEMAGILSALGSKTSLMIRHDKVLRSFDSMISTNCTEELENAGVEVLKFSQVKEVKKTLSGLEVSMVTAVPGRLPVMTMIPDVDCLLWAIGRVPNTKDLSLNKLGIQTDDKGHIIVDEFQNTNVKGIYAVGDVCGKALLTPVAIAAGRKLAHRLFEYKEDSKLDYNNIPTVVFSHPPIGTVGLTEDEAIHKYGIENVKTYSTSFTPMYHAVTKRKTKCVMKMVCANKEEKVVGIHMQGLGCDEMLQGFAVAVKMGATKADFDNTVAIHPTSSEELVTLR
Experimental: as §1
Cell lysates (10 μg proteins) were added to a mixture containing 100 mM phosphate, pH 7.4, 1 mM EDTA, 1 mM GSSG and 0.2 mM NADPH. Reaction was initiated by adding DTNB (3 mM final) and the increases in O.D.412 nm were measured for 10 min. GR activities were determined by subtracting the increases in O.D.412 nm in the absence of GSSG.

[10] = tested on: HeLa, human cervical epithelioid carcinoma
[11] = tested on: SUNE1, human nasopharyngeal carcinoma
[12] = tested on: HepG2, human hepatocellular carcinoma
[13] = tested on: NCI-H460 = human lung carcinoma
[14] = tested on: NCI-H460 non-small cell lung cancer cells; format: in vivo, mice
Experimental: The in vivo experiment was conducted in Pearl Materia Medica Development (Shenzhen) Limited and performed with approval from the Committee on the Use of Live Animals for Teaching and Research. SPF grade four-week-old female BALB/c AnN-nu mice (nude mice, 16-18 g) were purchased. Tumor cells (5×10^6) resuspended in RPMI medium were implanted by subcutaneous injection on the right flank of the mice. When tumors were approximately 50 mm^3 in size, animals were randomly separated into 3 groups to receive treatment of twice-a-week intraperitoneal injection of 10% PET vehicle control (where 10% PET=6% polyethylene glycol 400, 3% ethanol, 1% Tween 80 and 90% PBS), complex 1 (100 mg/kg) or cyclophosphamide (30 mg/kg) for 8 times. After 28 days, the mice were sacrificed and the tumors were isolated and weighted.

SMILES: O=[N+]([O-])[O-].[Ag+] [AgNO3, reference compound]
IC50 [1]: 32.1 ± 1.2 µM

effect on cellular TrxR activity, added up to 100 μM [6]: not affected
IC50 [7]: > 100 µM
effect on cellular GR activity, added up to 100 μM [9]: not affected
SMILES: COc1ccc(N2CCN(c3ccc(OC)cc3)C2=S)cc1 [TU, 1,3-bis(4-methoxyphenyl)imidazolidine-2-thione, reference compound]
effect on cellular GPx activity, added up to 100 μM [2]: not affected
IC50 at 72 h [3]: > 100 µM
IC50 at 72 h [4]: > 100 µM
IC50 at 72 h [5]: > 100 µM
IC50 at 72 h [8]: > 100 µM

SMILES: F[P-](F)(F)(F)(F)F.NC(N)=S.NC(N)=S.[Cu+] [complex 3, [Cu(TU)2]PF6]
IC50 [10]: 12.7 ± 0.9 µM
IC50 [11]: 8.5 ± 1 µM
effect on cellular GPx activity, added up to 100 μM [2]: not affected
IC50 [12]: 13 ± 0.9 µM
effect on cellular TrxR activity, added up to 100 μM [6]: not affected
effect on cellular GR activity, added up to 100 μM [9]: not affected
IC50 [13]: 11.2 ± 0.9 µM

SMILES: O=P1(N(CCCl)CCCl)NCCCO1 (stereo not drawn) [cyclophosphamide]
Tumor volume, Day 13 ([14]; Day 13, 30 mg/kg i.p. twice a week): 325.041 ± 170.053 mm^3
Tumor volume, Day 17 ([14]; Day 17, 30 mg/kg i.p. twice a week): 639.465 ± 422.362 mm^3
Tumor volume, Day 21 ([14]; Day 21, 30 mg/kg i.p. twice a week): 1032.258 ± 594.026 mm^3
Tumor volume, Day 25 ([14]; Day 25, 30 mg/kg i.p. twice a week): 1474.100 ± 900.357 mm^3
Tumor volume, Day 29 ([14]; Day 29, 30 mg/kg i.p. twice a week): 1438.735 ± 845.815 mm^3
